The text below walks through data of article PMC6151560, “Antibacterial and Antitubercular Activities of Cinnamylideneacetophenones” (Molecules : A Journal of Synthetic Chemistry and Natural …, 2017).

Data set [1] deals with Pseudomonas aeruginosa (ATCC 15442). As to the kind of experiment: Antibacterial broth microdilution (MIC), P. aeruginosa. Conditions: for MIC: ATCC15442, 24 h, read-out: Pa MIC.
In data set [2] the test system is Streptococcus mutans (ATCC 25175). Briefly: Antibacterial broth microdilution (MIC/MBC), S. mutans. Particulars: for MIC: ATCC25175, 24 h, read-out: Sm MIC, Streptococcus mutans, broth microdilution, 24 h, tested 3.9 to 500 µM; for MBC: ATCC25175, read-out: Sm MBC.
In data set [3] the test system is Streptococcus sanguinis (ATCC 10557). Briefly: Antibacterial broth microdilution (MIC/MBC), S. sanguinis. Particulars: for MIC: ATCC10557, 24 h; for MBC: ATCC10557, read-out: Ss MBC.
Data set [4] concerns Mycobacterium tuberculosis H37Rv (ATCC 27294). Briefly: Antitubercular REMA (Resazurin Microtiter Assay). The format is cell-based. Particulars: M. tuberculosis H37Rv, REMA, 7 days, lowest concentration giving 90% inhibition of growth, read-out: Mt MIC.
Data set [5] deals with Escherichia coli (ATCC 10536). Briefly: Antibacterial broth microdilution (MIC), E. coli. Conditions: for MIC: ATCC10536, 24 h, read-out: Ec MIC.
In data set [6] the test system is Staphylococcus aureus (ATCC 14458). As to the kind of experiment: Antibacterial broth microdilution (MIC/MBC), S. aureus. Conditions: for MIC: ATCC14458, 24 h; for MBC: ATCC14458, read-out: Sa MBC.
Data set [7] is described as follows: Partition coefficient log Po/w by HPLC-PDA (OECD method). Conditions: for chromatographic logP: n-octanol/water (from HPLC retention on a C-18 column).
Setting [8] is: read-out: Ss MIC, Streptococcus sanguinis, broth microdilution, 24 h, tested 3.9 to 500 µM.
Setting [9] is: Mycobacterium tuberculosis, 168 h.
Where [10] appears, read: read-out: Sa MIC, Staphylococcus aureus, broth microdilution, 24 h, tested 3.9 to 500 µM.
Setting [11] is: broth microdilution, 24 h, tested 3.9 to 500 µM.

In brackets after ≈: the same amount, converted by molar mass. Where two headings read alike, the source gives them in different places. Bounds are passed on as bounds.

For the compound `[H]/N=C(\N/C(=N/[H])NCCCCCCNC(=N)NC(=N)Nc1ccc(Cl)cc1)Nc1ccc(Cl)cc1` [CHX, chlorhexidine, reference compound], the MIC was 19.4 µM (≈ 9.81 µg/mL) in data set [1], 2.4 µM (≈ 1.21 µg/mL) in data set [2] and 4.7 µM (≈ 2.38 µg/mL) in data set [3] (setting [8]). Besides, the values for the MBC in data set [2] and in data set [3] were 4.7 µM (≈ 2.38 µg/mL) and 9.5 µM (≈ 4.8 µg/mL), respectively.

Turning to `O=C(/C=C/C=C/c1ccccc1)c1ccccc1` [Compound 2, (2E,4E)-1,5-diphenylpenta-2,4-dien-1-one], the minimal inhibitory concentration (MIC) in data set [4] is 57.2 µM (≈ 13.4 µg/mL); in data set [4] (setting [9]), 57.2 to 70.9 µM (≈ 13.4 to 16.6 µg/mL); in data set [1], above 500 µM; in data set [5], above 500 µM; in data set [2], above 500 µM; in data set [3] (setting [8]), above 500 µM. Also, the minimal inhibitory concentration (MIC) in data set [6] (setting [10]) was above 500 µM. Besides, the chromatographic logP in data set [7] stood at 3.2.

In the case of `Nc1cccc(C(=O)/C=C/C=C/c2ccccc2)c1` [Compound 5, (2E,4E)-1-(3-aminophenyl)-5-phenylpenta-2,4-dien-1-one], the MIC is above 200 µM in data set [4] (setting [9]); above 500 µM in data set [1]; above 500 µM in data set [5]; 313 µM (≈ 78 µg/mL) in data set [2]; above 500 µM in data set [3] (setting [8]); above 500 µM in data set [6] (setting [10]). For the same compound, the MBC in data set [2] was determined as 313 µM (≈ 78 µg/mL). This compound showed a chromatographic logP in data set [7] of 2.5.

As to `COc1cccc(C(=O)/C=C/C=C/c2ccccc2)c1` [Compound 6, (2E,4E)-1-(3-methoxyphenyl)-5-phenylpenta-2,4-dien-1-one], the MIC in data set [4] (setting [9]) was above 200 µM; in data set [1], above 500 µM; in data set [5] it was above 500 µM; in data set [2] it was at least 296 µM; in data set [3] (setting [8]), at least 296 µM; in data set [6] (setting [10]), at least 296 µM. Besides, the MBC in data set [6] amounted to 296 µM (≈ 78.2 µg/mL). The same compound came in with a chromatographic logP in data set [7] of 3.3.

On to `COc1ccc(C(=O)/C=C/C=C/c2ccccc2)cc1` [Compound 7, (2E,4E)-1-(4-methoxyphenyl)-5-phenylpenta-2,4-dien-1-one], for which the minimum inhibitory concentration (MIC) in data set [4] was 66.6 µM (≈ 17.6 µg/mL); in data set [4] (setting [9]), 57.2 to 70.9 µM (≈ 15.1 to 18.7 µg/mL); in data set [1], above 500 µM; in data set [5], above 500 µM; in data set [2], at least 296 µM; in data set [3] (setting [8]), at least 296 µM. Further, the minimal inhibitory concentration (MIC) in data set [6] (setting [10]) is at least 296 µM. The chromatographic logP in data set [7] was 3.2.

Consider `COc1cc(C(=O)/C=C/C=C/c2ccccc2)ccc1O` [Compound 9, (2E,4E)-1-(4-hydroxy-3-methoxyphenyl)-5-phenylpenta-2,4-dien-1-one], for which the minimal inhibitory concentration (MIC) in data set [4] (setting [9]) is 83.5 µM (≈ 23.4 µg/mL); in data set [1], above 500 µM; in data set [5], above 500 µM; in data set [2] it was above 500 µM; in data set [3] (setting [8]) it was above 500 µM; in data set [6] (setting [10]), 279 µM (≈ 78.2 µg/mL). The MBC in data set [6] was determined as 279 µM (≈ 78.2 µg/mL). This compound also showed a chromatographic logP in data set [7] of 2.7.

For `O=C(/C=C/C=C/c1ccccc1)c1ccc(F)cc1` [Compound 10, (2E,4E)-1-(4-fluorophenyl)-5-phenylpenta-2,4-dien-1-one], the minimal inhibitory concentration (MIC) was 67.4 µM (≈ 17 µg/mL) in data set [4]; 57.2 to 70.9 µM (≈ 14.4 to 17.9 µg/mL) in data set [4] (setting [9]); above 500 µM in data set [1]; above 500 µM in data set [5]; above 500 µM in data set [2]; above 500 µM in data set [3] (setting [8]). Besides, the MIC in data set [6] (setting [10]) is above 500 µM. The same compound displayed a chromatographic logP in data set [7] of 3.3.

Consider `O=C(/C=C/C=C/c1ccccc1)c1ccc(Cl)c(Cl)c1` [Compound 13, (2E,4E)-1-(3,4-dichlorophenyl)-5-phenylpenta-2,4-dien-1-one], for which the MIC in data set [4] (setting [9]) is above 200 µM; in data set [1], above 500 µM; in data set [5], above 500 µM; in data set [2], above 500 µM; in data set [3] (setting [8]) it was above 500 µM; in data set [6] (setting [10]), above 500 µM. In data set [7], the chromatographic logP was determined as 4.1.

Turning to `O=C(/C=C/C=C/c1ccccc1)c1cccc(C(F)(F)F)c1` [Compound 14, (2E,4E)-1-(3-(trifluoromethyl)phenyl)-5-phenylpenta-2,4-dien-1-one], the minimal inhibitory concentration (MIC) was above 200 µM in data set [4] (setting [9]); above 500 µM in data set [1]; above 500 µM in data set [5]; above 500 µM in data set [2]; above 500 µM in data set [3] (setting [8]); above 500 µM in data set [6] (setting [10]). The same compound had a chromatographic logP in data set [7] of 3.7.

`O=C(/C=C/C=C/c1ccccc1)c1cccc([N+](=O)[O-])c1` [Compound 15, (2E,4E)-1-(3-nitrophenyl)-5-phenylpenta-2,4-dien-1-one]: the MIC in data set [4] (setting [9]) was above 200 µM; in data set [1] it was above 500 µM; in data set [5], above 500 µM; in data set [2], above 500 µM; in data set [3] (setting [8]), above 500 µM; in data set [6] (setting [10]) it was above 500 µM. In data set [7], this compound showed a chromatographic logP of 3.3.

In the case of `O=C(/C=C/C=C/c1ccccc1)c1ccc([N+](=O)[O-])cc1` [Compound 16, (2E,4E)-1-(4-nitrophenyl)-5-phenylpenta-2,4-dien-1-one], the minimal inhibitory concentration (MIC) in data set [4] (setting [9]) was above 200 µM; in data set [1], above 500 µM; in data set [5], above 500 µM; in data set [2], above 500 µM; in data set [3] (setting [8]), above 500 µM; in data set [6] (setting [10]), above 500 µM. Besides, the chromatographic logP in data set [7] came to 3.2.

As to `Cc1cccc(C(=O)/C=C/C=C/c2ccccc2)c1` [Compound 17, (2E,4E)-1-(3-methylphenyl)-5-phenylpenta-2,4-dien-1-one], the MIC in data set [4] (setting [9]) was above 200 µM; in data set [1], above 500 µM; in data set [5] it was above 500 µM; in data set [2], above 500 µM; in data set [3] (setting [8]), above 500 µM; in data set [6] (setting [10]), above 500 µM. In data set [7], this compound came in with a chromatographic logP of 3.6.

In the case of `Cc1ccc(C(=O)/C=C/C=C/c2ccccc2)cc1` [Compound 18, (2E,4E)-1-(4-methylphenyl)-5-phenylpenta-2,4-dien-1-one], the MIC in data set [4] is 70.9 µM (≈ 17.6 µg/mL); in data set [4] (setting [9]), 57.2 to 70.9 µM (≈ 14.2 to 17.6 µg/mL); in data set [1], above 500 µM; in data set [5], above 500 µM; in data set [2], above 500 µM; in data set [3] (setting [8]) it was above 500 µM. The MIC in data set [6] (setting [10]) is above 500 µM. Moreover, the chromatographic logP in data set [7] worked out at 3.5.

Regarding `NNC(=O)c1ccncc1` [ISO, isoniazid, reference compound], the MIC in data set [4] (setting [9]) stood at 0.3 µM (≈ 0.0411 µg/mL).

With `CC1(C)S[C@@H]2[C@H](NC(=O)Cc3ccccc3)C(=O)N2[C@H]1C(=O)O` [PEN, Penicillin G, reference compound], the minimum inhibitory concentration (MIC) in data set [5] was found to be 118 µM (≈ 39.5 µg/mL); in data set [3] (setting [8]), 0.4 µM (≈ 0.134 µg/mL). Further, in data set [3], the minimal bactericidal concentration (MBC) is 0.4 µM (≈ 0.134 µg/mL).

For `CN[C@H](CC(C)C)C(=O)N[C@H]1C(=O)N[C@@H](CC(N)=O)C(=O)N[C@H]2C(=O)N[C@H]3C(=O)N[C@H](C(=O)N[C@H](C(=O)O)c4cc(O)cc(O)c4-c4cc3ccc4O)[C@H](O)c3ccc(c(Cl)c3)Oc3cc2cc(c3O[C@@H]2O[C@H](CO)[C@@H](O)[C@H](O)[C@H]2O[C@H]2C[C@](C)(N)[C@H](O)[C@H](C)O2)Oc2ccc(cc2Cl)[C@H]1O` [VAN, vancomycin, reference compound], the MIC in data set [5] worked out at 53.8 µM (≈ 78 µg/mL); in data set [3] (read-out: Ss MIC) it was 3.3 µM (≈ 4.78 µg/mL); in data set [6] (read-out: Sa MIC) it was 3.3 µM (≈ 4.78 µg/mL). In addition, the MBC in data set [3] is 3.3 µM (≈ 4.78 µg/mL); in data set [6], 6.8 µM (≈ 9.86 µg/mL).

On to “(2E,4E)-1-(3,4-methylenedioxy)-5-phenylpenta-2,4-dien-1-one [Compound 8]”, for which, in data set [1] (broth microdilution, 24 h), the “Pa MIC” value is on record as above 500 µM. Besides, in data set [5] (broth microdilution, 24 h), the “Ec MIC” value is listed as above 500 µM. Also, in data set [2] (setting [11]), the “Sm MIC” value is given as above 500 µM. In addition, the “Ss MIC” value in data set [3] (setting [11]) is above 500 µM. The “Sa MIC” value in data set [6] (setting [11]) is on record as above 500 µM. Moreover, the “log Po/w” value in data set [7] (n-octanol/water, HPLC-PDA method, MeOH:H2O (3:1)) is 3.2.
